Source: US9725469B2, “Amino-oxazine and amino-dihydrothiazine compounds as beta-secretase modulators and methods of use” (Amgen Inc., priority 2012, dated 2017)

Tests used:
Cathepsin D = target: T1, Cathepsin D (Homo sapiens, UniProt P07339); assay: In vitro enzymatic Cat D (Cathepsin D) FRET assay; format: biochemical; settings: average IC50, pH 3.5
T1 construct: made in house; host or cells: CHO cells
Protocol: In Vitro Enzymatic Cat D (Cathepsin D) FRET (Fluorescence Resonance Energy Transfer) Assay
Recombinant CathepsinD was expressed in CHO cells. The assay buffer for CathepsinD is 0.05 M citrate pH 3.5, 10% DMSO final, 5 mM CHAPS. The CathepsinD enzyme (9 nM) is pre-incubated for one hour with inhibitors, typically in about 1 uL of DMSO according to a serial dilution, is added thereto. The assays are effectively started by the addition of different FRET substrates (20 nM for CathepsinD) and the combination is incubated for one hour. The FRET assay is terminated with by addition of Tris buffer, which raises the pH to neutrality, and the fluorescence is determined. The FRET substrate is a peptide with commercially available fluorophore and quencher, on opposite sides of the BACE cleavage site. The CathepsinD substrate peptide sequence is based on sequence #1 of Table 1 from Gulnik et al. FEBS Letters v413 p 379-384 1997. Proteolytic cleavage of the FRET substrate releases quenching of fluorescence (CathepsinD excitation 500 nm and emission 580 nm). […]

[1] = tested on: Aβ40 in conditioned medium of cells stably expressing Amyloid Precursor Protein (APP); assay: In vitro BACE cell-based assay (HEK cell assay, Aβ40 sandwich ELISA); settings: average IC50, Aβ40, 24 h incubation
Protocol: In Vitro BACE Cell-Based Assay
The cell-based assay measures inhibition or reduction of Aβ40 in conditioned medium of test compound treated cells expressing amyloid precursor protein.
Cells stably expressing Amyloid Precursor Protein (APP) were plated at a density of 40K cells/well in 96 well plates (Costar). The cells were cultivated for 24 hours at 37° C. and 5% CO2 in DMEM supplemented with 10% FBS. The test compounds were then added to cells in 10-point dose response concentrations with the starting concentration being either 100 μM or 10 μM. The compounds were diluted from stock solutions in DMSO and the final DMSO concentration of the test compounds on cells was 0.1%. After 24 h of incubation with the test compounds the supernatant conditioned media was collected and the Aβ 40 levels were determined using a sandwich ELISA. The IC50 of the compound was calculated from the percent of control or percent inhibition of Aβ 40 as a function of the concentration of the test compound.
The sandwich ELISA to detect Aβ 40 was performed in 96 well microtiter plates, which were pre-treated with goat anti-rabbit IgG (Pierce). The capture and detecting antibody pair that were used to detect Aβ 40 from cell supernatants were affinity purified pAb40 (Biosource) and biotinylated 6E10 (Signet Labs Inc.), respectively. The optimal concentration for the pAb40 antibody was 3 μg/ml in Superblock/TBS (Pierce) that was supplemented with 0.05% Tween 20 (Sigma). Optimal concentration for the detection antibody 6E10-biotinylated was 0.5 μg/ml in Superblock/TBS (Pierce) that had been supplemented with 2% normal goat serum and 2% normal mouse serum.
Cellular supernatants were incubated with the capture antibody for 3 h at 4° C., followed by 3 wash steps in TBS-tween (0.05%). The detecting antibody incubation was for 2 h at 4° C., again followed by the wash steps as described previously. The final readout of the ELISA is Time-Resolved Fluorescence (counts per minute) using Delfia reagents Streptavidin-Europium and Enhancement solutions (Perkin Elmer) and the Victor 2 multilabel counter (Perkin Elmer).

[2] = target: BACE 1 (beta secretase enzyme) (Homo sapiens, UniProt P56817); assay: In vitro enzymatic BACE FRET assay; format: biochemical; settings: average IC50, pH 4.2
Chain of BACE 1 (beta secretase enzyme) (P56817 46-501): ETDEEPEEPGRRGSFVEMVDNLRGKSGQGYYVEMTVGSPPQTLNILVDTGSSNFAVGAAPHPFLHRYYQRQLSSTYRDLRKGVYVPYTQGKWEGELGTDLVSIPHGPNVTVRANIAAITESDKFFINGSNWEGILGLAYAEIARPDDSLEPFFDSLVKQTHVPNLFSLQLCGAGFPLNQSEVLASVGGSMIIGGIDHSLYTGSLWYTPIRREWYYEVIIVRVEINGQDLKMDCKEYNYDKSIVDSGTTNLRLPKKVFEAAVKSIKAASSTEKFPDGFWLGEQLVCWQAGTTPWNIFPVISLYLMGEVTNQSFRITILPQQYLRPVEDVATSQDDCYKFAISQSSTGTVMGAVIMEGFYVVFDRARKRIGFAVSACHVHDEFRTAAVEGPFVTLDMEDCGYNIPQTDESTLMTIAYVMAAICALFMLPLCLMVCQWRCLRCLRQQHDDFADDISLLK
Protocol: In Vitro Enzymatic BACE FRET (Fluorescence Resonance Energy Transfer) Assay
The assay buffer used in this screen is 0.05 M acetate, pH 4.2, 10% DMSO final, 100 uM genapol (which is a nonionic detergent, below its Critical Micelle Concentration). The beta secretase enzyme (0.2 nM) is pre-incubated for one hour with inhibitors, typically in about 1 uL of DMSO according to a serial dilution, are added thereto. This assay is effectively started by the addition of FRET substrate (50 nM) and the combination is incubated for one hour. The FRET assay is terminated with by addition of Tris buffer, which raises the pH to neutrality, and the fluorescence is determined. The FRET substrate is a peptide with commercially available fluorophore and quencher, on opposite sides of the BACE cleavage site. Proteolytic cleavage of the FRET substrate releases quenching of fluorescence (excitation […] and […]).

Abeta 40 = assay: In vivo inhibition of beta-secretase: Abeta 40 reduction in rat CSF and brain; settings: after 4 hrs; for % reduction of rat CSF Abeta 40 levels at 10 mpk: Abeta 40, rat CSF; for % reduction of rat brain levels at 10 mpk: Abeta 40, rat brain
From the text: In Vivo Inhibition of Beta-Secretase
Several animal models, including mouse, rat, dog, and monkey, may be used to screen for inhibition of beta-secretase activity in vivo following administration of a test compound sample. Animals used in this invention can be wild type, transgenic, or gene knockout animals. For example, the Tg2576 mouse model, prepared and conducted as described in Hsiao et al., 1996, Science 274, 99-102, and other non-transgenic or gene knockout animals are useful to analyze in vivo inhibition of Amyloid beta peptide (Abeta) production in the presence of inhibitory test compounds. Generally, 2 to 18 month old Tg2576 mice, gene knockout mice or non-transgenic animals are administered test compounds formulated in vehicles, such as cyclodextran, phosphate buffers, hydroxypropyl methylcellulose or other suitable vehicles. One to twenty-four hours following the administration of compound, animals are sacrificed, and brains as well as cerebrospinal fluid (CSF) and plasma are removed for analysis of A-beta levels and drug or test compound concentrations (Dovey et al., 2001, Journal of Neurochemistry, 76, 173-181) Beginning at time 0, animals are administered by oral gavage, or other means of delivery such as intravenous injection, an inhibitory test compound of up to 100 mg/kg in a standard, conventional formulation, such as 2% hydroxypropyl methylcellulose, 1% Tween80. A separate group of animals receive 2% hydroxypropyl methylcellulose, 1% Tween80 alone, containing no test compound, and serve as a vehicle-control group. At the end of the test period, animals are sacrificed and brain tissues, plasma or cerebrospinal fluid are collected. Brains are either homogenized in 10 volumes (w/v) of 0.2% diethylamine (DEA) in 50 mM NaCl (Best et al., 2005, Journal of Pharmacology and Experimental Therapeutics, 313, 902-908), or in 10 volumes of 0.5% TritonX-100 in Tris-buffered saline (pH at about 7.6). Homogenates are centrifuged at 355,000 g, 4° C. for 30 minutes. CSF or brain supernatants are then analyzed for the presence of A-beta peptide by specific sandwich ELISA assays based on ECL (Electrochemiluminescence) technology. For example, rat Abeta40 is measured using biotinylated-4G8 (Signet) as a capture antibody and Fab40 (an in-house antibody specific to the C-terminal of Abeta40) as a detection antibody. For example, 4 hours after administration of 30 mg/kg oral dose of the test compound in 2% hydroxypropyl methylcellulose, 1% Tween80 (pH2.2) to 200 g male Sprague Dawley rats, amyloid beta peptide levels are measured for reduction by X % and Y % in cerebrospinal fluid and brain, respectively, when compared to the levels measured in the vehicle-treated rats.
Actual vehicles used: Oral: 2% HPMC, 1% Tween80, pH 2.2
The compounds of the invention may be shown to reduce the formation and/or deposition of amyloid beta peptide in the cerebrospinal fluid (CSF) as well as in the brain of a mouse or rat at either 3 mpk, 10 mpk or 30 mpk (mpk=mg compound per kg weight of the animal) dosing concentrations after 4 hrs.

T1 sequence (P07339 65-412, species assumed): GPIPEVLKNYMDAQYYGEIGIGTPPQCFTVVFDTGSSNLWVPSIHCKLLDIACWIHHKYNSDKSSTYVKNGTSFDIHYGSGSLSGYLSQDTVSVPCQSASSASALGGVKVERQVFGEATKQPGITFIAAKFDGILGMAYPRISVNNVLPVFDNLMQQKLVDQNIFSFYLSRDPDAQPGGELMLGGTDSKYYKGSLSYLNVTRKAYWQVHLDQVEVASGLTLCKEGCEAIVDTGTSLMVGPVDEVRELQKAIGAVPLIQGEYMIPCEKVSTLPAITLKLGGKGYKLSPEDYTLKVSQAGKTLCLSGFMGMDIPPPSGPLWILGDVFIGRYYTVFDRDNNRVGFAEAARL

Structure (SMILES) | IC50 (Cathepsin D) [nM] | IC50 ([1]; Homo sapiens, HEK293) [nM] | IC50 [2] [nM] | % reduction of rat CSF Abeta 40 levels at 10 mpk (Abeta 40) [%] | % reduction of rat brain levels at 10 mpk (Abeta 40) [%] | IC50 [1] [nM]
COc1cnc2c(Nc3ccc4c(c3)[C@@]3(CCSC(N)=N3)c3cc(C5=CCCOC5)nc(F)c3O4)nccc2c1 [Example 31, (5S)-3-(5,6-dihydro-2H-pyran-3-yl)-1-fluoro-N~7~-(3-methoxy-1,7-naphthyridin-8-yl)-5′,6′-dihydrospiro[chromeno[2,3-c]pyridine-5,4′-[1,3]thiazine]-2′,7-diamine] | 313000 | 5.3 | 4.3 | – | – | –
COc1cnc2c(Nc3ccc4c(c3)[C@@]3(CCSC(N)=N3)c3cc(C5=CCOCC5)nc(F)c3O4)nccc2c1 [Example 32, (5S)-3-(3,6-dihydro-2H-pyran-4-yl)-1-fluoro-N~7~-(3-methoxy-1,7-naphthyridin-8-yl)-5′,6′-dihydrospiro[chromeno[2,3-c]pyridine-5,4′-[1,3]thiazine]-2′,7-diamine] | 373000 | 3.3 | 4.4 | 71 | 47 | –
COc1cnc2c(Nc3ccc4c(c3)[C@@]3(CCOC(N)=N3)c3cc(C5=CCOCC5)ncc3O4)ccnc2c1 [Example 33] | – | – | 19.4 | – | – | 0.4
COc1cnc2c(Nc3ccc4c(c3)[C@@]3(CCSC(N)=N3)c3cc(C5=CCCOC5)ncc3O4)nccc2c1 [Example 34, (5S)-3-(5,6-dihydro-2H-pyran-3-yl)-N~7~-(3-methoxy-1,7-naphthyridin-8-yl)-5′,6′-dihydrospiro[chromeno[2,3-c]pyridine-5,4′-[1,3]thiazine]-2′,7-diamine] | 336000 | 5.4 | 13.2 | 44 | 5 | –
COc1cnc2c(Nc3ccc4c(c3)[C@@]3(CCOC(N)=N3)c3cc(Cl)nc(F)c3O4)nccc2c1 [Example 35, (5S)-3-chloro-1-fluoro-N-~7~-(3-methoxy-1,7-naphthyridin-8-yl)-5′,6′-dihydrospiro[chromeno[2,3-c]pyridine-5,4′-[1,3]oxazine]-2′,7-diamine] | 400000 | 35.3 | 97.2 | – | – | –
COc1cnc2c(Nc3ccc4c(c3)[C@@]3(CCOC(N)=N3)c3cc(C(C)C)ncc3O4)nccc2c1 [Example 36, (5S)-N~7~-(3-methoxy-1,7-naphthyridin-8-yl)-3-(1-methylethyl)-5′,6′-dihydrospiro[chromeno[2,3-c]pyridine-5,4′-[l,3]oxazine]-2′,7-diamine] | 133000 | 2.7 | 11.3 | 58 | 19 | –
COc1cnc2c(Nc3ccc4c(c3)[C@@]3(CCSC(N)=N3)c3cc(-c5ccnc(F)c5)nc(F)c3O4)nccc2c1 [Example 39, (5S)-1-fluoro-3-(2-fluoro-4-pyridinyl)-N~7~-(3-methoxy-1,7-naphthyridin-8-yl)-5′,6′-dihydrospiro[chromeno[2,3-c]pyridine-5,4′-[1,3]thiazine]-2′,7-diamine] | 338000 | 12.3 | 3.2 | – | – | –
COc1cnc2c(Nc3ccc4c(c3)[C@@]3(CCSC(N)=N3)c3cc(-c5ccnc(OC(C)C)c5)nc(F)c3O4)nccc2c1 [Example 40, (5S)-1-fluoro-N~7~-(3-methoxy-1,7-naphthyridin-8-yl)-3-(2-(1-methylethoxy)-4-pyridinyl)-5′,6′-dihydrospiro[chromeno[2,3-c]pyridine-5,4′-[1,3]thiazine]-2′,7-diamine] | 400000 | 138 | 15.6 | – | – | –
COc1cnc2c(Nc3ccc4c(c3)[C@@]3(CCSC(N)=N3)c3cc(-c5cncc(F)c5)nc(F)c3O4)nccc2c1 [Example 41, (5S)-1-fluoro-3-(5-fluoro-3-pyridinyl)-N~7~-(3-methoxy-1,7-naphthyridin-8-yl)-5′,6′-dihydrospiro[chromeno[2,3-c]pyridine-5,4′-[1,3]thiazine]-2′,7-diamine] | 400000 | 16 | 3.2 | – | – | –
COc1cnc2c(Nc3ccc4c(c3)[C@@]3(CCOC(N)=N3)c3cc(C5CC5)ncc3O4)nccc2n1 [Example 42, (5S)-3-cyclopropyl-N~7~-(2-methoxypyrido[3,4-b]pyrazin-5-yl)-5′,6′-dihydrospiro[chromeno[2,3-c]pyridine-5,4′-[1,3]oxazine]-2′,7-diamine] | 400000 | 2.6 | 6.9 | – | – | –
COc1cnc2c(Nc3ccc4c(c3)[C@@]3(CCOC(N)=N3)c3cc(C5=CCOCC5)ncc3O4)nccc2c1 [Example 43, (5S)-3-(3,6-dihydro-2H-pyran-4-yl)-N~7~-(3-methoxy-1,7-naphthyridin-8-yl)-5′,6′-dihydrospiro[chromeno[2,3-c]pyridine-5,4′-[1,3]oxazine]-2′,7-diamine] | 400000 | 2.6 | 14.8 | – | – | –
Cc1nc2c(Nc3ccc4c(c3)[C@@]3(CCOC(N)=N3)c3cc(C5=CCOCC5)ncc3O4)nccc2s1 [Example 44, (5S)-3-(3,6-dihydro-2H-pyran-4-yl)-N~7~-(2-methyl[1,3]thiazolo[4,5-c]pyridin-4-yl)-5′,6′-dihydrospiro[chromeno[2,3-c]pyridine-5,4′-[1,3]oxazine]-2′,7-diamine] | 400000 | 4.1 | 5.3 | – | – | –
